pIC50: −log10 of the molar value.
Target: human PTGES (Homo sapiens (Human), UniProt O14684)
Assay: Human PTGES biochemical enzyme inhibition assay (conversion of PGH2 to PGE2, TR-FRET)
Conditions: Enzymatic conversion of PGH2 to PGE2; read-out: Human PTGES IC50
Method in brief: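 FLAG-tagged human PTGES from Hi-5 insect cells preincubated 15–20 min with compound in pH 7.2 phosphate buffer with 2.5 mM reduced glutathione; reaction started with 8 nM PGH2 final, stopped with SnCl2/KF.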

human PTGES, sequence (O14684 whole entry): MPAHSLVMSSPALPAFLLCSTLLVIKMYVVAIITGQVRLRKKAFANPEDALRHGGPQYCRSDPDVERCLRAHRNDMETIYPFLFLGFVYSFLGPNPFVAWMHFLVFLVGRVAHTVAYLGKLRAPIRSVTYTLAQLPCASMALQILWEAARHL

Work on `Cc1c(CCC(=O)O)cccc1NC(=O)C(c1ccc(-c2cncc(OC(C)C)c2)c(F)c1)C1CCC1` (single isomer, unassigned; (-)) [Example 209, (−) 3-[3-({cyclobutyl[3-fluoro-4-(5-isopropoxypyridin-3-yl)phenyl]acetyl}amino)-2-methylphenyl]propanoic acid, Single Enantiomer] yielded a pIC50 of 7.41.
Compound `CCc1cncc(-c2ccc(C(C(=O)Nc3cccc(CCC(=O)O)c3C)C3CCC3)cc2F)c1` (single isomer, unassigned; (-)) [Example 210, (−) 3-[3-({cyclobutyl[4-(5-ethylpyridin-3-yl)-3-fluorophenyl]acetyl}amino)-2-methylphenyl]propanoic acid, Single Enantiomer] has a pIC50 of 7.46.
Compound `Cc1c(CC(C)C(=O)O)cccc1NC(=O)C(c1ccc(-c2cncc(C(F)(F)F)c2)cc1)C1CCCC1` (single isomer, unassigned; stereoisomer 1) [Example 69, 3-{3-[(Cyclopentyl{4-[5-(trifluoromethyl)pyridin-3-yl]phenyl}acetyl)amino]-2-methylphenyl}-2-methylpropanoic acid, Stereoisomer 1] has a pIC50 of 5.06.
`Cc1ncc(-c2ccc(C(C(=O)Nc3cccc(CC(C)C(=O)O)c3C)C3CCCC3)cc2)cc1Cl` (single isomer, unassigned; stereoisomer 1) [Example 83, 3-[3-({[4-(5-Chloro-6-methylpyridin-3-yl)phenyl](cyclopentyl)acetyl}amino)-2-methylphenyl]-2-methylpropanoic acid, Stereoisomer 1] gave a pIC50 of 4.93.
Work on `Cc1c(NC(=O)C(c2ccc(-c3cncc(C(F)(F)F)c3)c(F)c2)C2CCCC2)cccc1C(C)CC(=O)O` (single isomer, unassigned; stereoisomer 1) [Example 116, 3-{3-[(Cyclopentyl{3-fluoro-4-[5-(trifluoromethyl)pyridin-3-yl]phenyl}acetyl)amino]-2-methylphenyl}butanoic acid, Stereoisomer 1] yielded a pIC50 of 8.46.
In the case of `Cc1ncc(-c2ccc(C(C(=O)Nc3cccc(C(C)CC(=O)O)c3C)C3CCCC3)cc2F)cc1Cl` (single isomer, unassigned; stereoisomer 1) [Example 121, 3-[3-({[4-(5-Chloro-6-methylpyridin-3-yl)-3-fluorophenyl](cyclopentyl)acetyl}amino)-2-methylphenyl]butanoic acid, Stereoisomer 1], the pIC50 was 6.42.
`Cc1c(NC(=O)C(c2ccc(-c3cncc(Cl)c3)c(F)c2)C2CCCC2)cccc1C(C)CC(=O)O` (single isomer, unassigned; stereoisomer 1) [Example 126, 3-[3-({[4-(5-Chloropyridin-3-yl)-3-fluorophenyl](cyclopentyl)acetyl}amino)-2-methylphenyl]butanoic acid, Stereoisomer 1] gave a pIC50 of 6.19.
`Cc1c(NC(=O)C(c2ccc(-c3cncc(Cl)c3)cc2)C2CCC2)cccc1C(C)CC(=O)O` (single isomer, unassigned; stereoisomer 1) [Example 136] showed a pIC50 of 7.90.
For `Cc1c(NC(=O)C(c2ccc(-c3cncc(C(F)(F)F)c3)c(F)c2)C2CCC2)cccc1C(C)CC(=O)O` (single isomer, unassigned; stereoisomer 1) [Example 147, 3-{3-[(Cyclobutyl{3-fluoro-4-[5-(trifluoromethyl)pyridin-3-yl]phenyl}acetyl)amino]-2-methylphenyl}butanoic acid, Stereoisomer 1], the pIC50 was 5.88.
Work on `Cc1c(NC(=O)C(c2ccc(-c3cncc(Cl)c3)c(F)c2)C2CCC2)cccc1C(C)CC(=O)O` (single isomer, unassigned; stereoisomer 1) [Example 150, 3-[3-({[4-(5-Chloropyridin-3-yl)-3-fluorophenyl](cyclobutyl)acetyl}amino)-2-methylphenyl]butanoic acid, Stereoisomer 1] yielded a pIC50 of 5.58.
`Cc1c(CC(C)C(=O)O)cccc1NC(=O)C(c1ccc(-c2cncc(C(F)(F)F)c2)cc1)C1CCCC1` (single isomer, unassigned; stereoisomer 2) [Example 70, 3-{3-[(Cyclopentyl{4-[5-(trifluoromethyl)pyridin-3-yl]phenyl}acetyl)amino]-2-methylphenyl}-2-methylpropanoic acid, Stereoisomer 2] gave a pIC50 of 7.28.
In the case of `Cc1ncc(-c2ccc(C(C(=O)Nc3cccc(CC(C)C(=O)O)c3C)C3CCCC3)cc2)cc1Cl` (single isomer, unassigned; stereoisomer 2) [Example 84, 3-[3-({[4-(5-Chloro-6-methylpyridin-3-yl)phenyl](cyclopentyl)acetyl}amino)-2-methylphenyl]-2-methylpropanoic acid, Stereoisomer 2], the pIC50 was 7.39.
`Cc1c(NC(=O)C(c2ccc(-c3cncc(C(F)(F)F)c3)c(F)c2)C2CCCC2)cccc1C(C)CC(=O)O` (single isomer, unassigned; stereoisomer 2) [Example 117, 3-{3-[(Cyclopentyl{3-fluoro-4-[5-(trifluoromethyl)pyridin-3-yl]phenyl}acetyl)amino]-2-methylphenyl}butanoic acid, Stereoisomer 2] gave a pIC50 of 7.81.
Compound `Cc1ncc(-c2ccc(C(C(=O)Nc3cccc(C(C)CC(=O)O)c3C)C3CCCC3)cc2F)cc1Cl` (single isomer, unassigned; stereoisomer 2) [Example 122, 3-[3-({[4-(5-Chloro-6-methylpyridin-3-yl)-3-fluorophenyl](cyclopentyl)acetyl}amino)-2-methylphenyl]butanoic acid, Stereoisomer 2] has a pIC50 of 7.64.
`Cc1c(NC(=O)C(c2ccc(-c3cncc(Cl)c3)c(F)c2)C2CCCC2)cccc1C(C)CC(=O)O` (single isomer, unassigned; stereoisomer 2) [Example 127, 3-[3-({[4-(5-Chloropyridin-3-yl)-3-fluorophenyl](cyclopentyl)acetyl}amino)-2-methylphenyl]butanoic acid, Stereoisomer 2] showed a pIC50 of 7.50.
Compound `Cc1c(NC(=O)C(c2ccc(-c3cncc(Cl)c3)cc2)C2CCC2)cccc1C(C)CC(=O)O` (single isomer, unassigned; stereoisomer 2) [Example 137] has a pIC50 of 5.54.
With `Cc1c(NC(=O)C(c2ccc(-c3cncc(C(F)(F)F)c3)c(F)c2)C2CCC2)cccc1C(C)CC(=O)O` (single isomer, unassigned; stereoisomer 2) [Example 148, 3-{3-[(Cyclobutyl{3-fluoro-4-[5-(trifluoromethyl)pyridin-3-yl]phenyl}acetyl)amino]-2-methylphenyl}butanoic acid, Stereoisomer 2] the pIC50 was 7.62.
`Cc1c(NC(=O)C(c2ccc(-c3cncc(Cl)c3)c(F)c2)C2CCC2)cccc1C(C)CC(=O)O` (single isomer, unassigned; stereoisomer 2) [Example 151, 3-[3-({[4-(5-Chloropyridin-3-yl)-3-fluorophenyl](cyclobutyl)acetyl}amino)-2-methylphenyl]butanoic acid, Stereoisomer 2] gave a pIC50 of 7.33.
Compound `Cc1c(CC(C)C(=O)O)cccc1NC(=O)C(c1ccc(-c2cncc(C(F)(F)F)c2)cc1)C1CCCC1` (single isomer, unassigned; stereoisomer 3) [Example 71, 3-{3-[(Cyclopentyl{4-[5-(trifluoromethyl)pyridin-3-yl]phenyl}acetyl)amino]-2-methylphenyl}-2-methylpropanoic acid, Stereoisomer 3] has a pIC50 of 4.80.
With `Cc1c(NC(=O)C(c2ccc(-c3cncc(C(F)(F)F)c3)c(F)c2)C2CCCC2)cccc1C(C)CC(=O)O` (single isomer, unassigned; stereoisomer 3) [Example 118, 3-{3-[(Cyclopentyl{3-fluoro-4-[5-(trifluoromethyl)pyridin-3-yl]phenyl}acetyl)amino]-2-methylphenyl}butanoic acid, Stereoisomer 3] the pIC50 was 6.42.
For `Cc1ncc(-c2ccc(C(C(=O)Nc3cccc(C(C)CC(=O)O)c3C)C3CCCC3)cc2F)cc1Cl` (single isomer, unassigned; stereoisomer 3) [Example 123, 3-[3-({[4-(5-Chloro-6-methylpyridin-3-yl)-3-fluorophenyl](cyclopentyl)acetyl}amino)-2-methylphenyl]butanoic acid, Stereoisomer 3], the pIC50 was 6.19.
Compound `Cc1c(NC(=O)C(c2ccc(-c3cncc(Cl)c3)c(F)c2)C2CCCC2)cccc1C(C)CC(=O)O` (single isomer, unassigned; stereoisomer 3) [Example 128, 3-[3-({[4-(5-Chloropyridin-3-yl)-3-fluorophenyl](cyclopentyl)acetyl}amino)-2-methylphenyl]butanoic acid, Stereoisomer 3] has a pIC50 of 5.76.
For `Cc1c(NC(=O)C(c2ccc(-c3cncc(Cl)c3)cc2)C2CCC2)cccc1C(C)CC(=O)O` (single isomer, unassigned; stereoisomer 3) [Example 138], the pIC50 was 5.69.
`Cc1c(NC(=O)C(c2ccc(-c3cncc(Cl)c3)c(F)c2)C2CCC2)cccc1C(C)CC(=O)O` (single isomer, unassigned; stereoisomer 3) [Example 152, 3-[3-({[4-(5-Chloropyridin-3-yl)-3-fluorophenyl](cyclobutyl)acetyl}amino)-2-methylphenyl]butanoic acid, Stereoisomer 3] was tested, and the pIC50 was 6.04.
Work on `Cc1c(CC(C)C(=O)O)cccc1NC(=O)C(c1ccc(-c2cncc(C(F)(F)F)c2)cc1)C1CCCC1` (single isomer, unassigned; stereoisomer 4) [Example 72, 3-{3-[(Cyclopentyl{4-[5-(trifluoromethyl)pyridin-3-yl]phenyl}acetyl)amino]-2-methylphenyl}-2-methylpropanoic acid, Stereoisomer 4] yielded a pIC50 of 7.15.
With `CCC(CC(=O)O)c1cccc(NC(=O)C(c2ccc(-c3cncc(F)c3)cc2)C2CCCC2)c1C` (single isomer, unassigned; stereoisomer 4) [Example 106, 3-[3-({[4-(5-Fluoropyridin-3-yl)phenyl](cyclopentyl)acetyl}amino)-2-methylphenyl]pentanoic acid, Stereoisomer 4] the pIC50 was 6.81.
